Laboratory results published in ChEMBL document CHEMBL3885861, “Open TG-GATES”.

Organism: Rattus norvegicus
Assay: Open TG-GATES - Regimen: Single
Format: toxicity, organism-based, Sprague-Dawley
Set-up: regimen Single, gender Male, age 6 weeks
Settings: in vivo, po, 0 mg/kg, route gavage, dose level Control; for APTT / Bas / Eos / Fbg / Hb / Ht / Lym / MCH / MCHC / MCV / Mono / Neu / PT / Plat / RBC / Ret / WBC: tissue Blood; for KIDNEY_L / KIDNEY_R / KIDNEY_TOTAL: tissue Kidney; for LIVER: tissue Liver; for A/G / ALP / ALT / AST / BUN / CRE / Ca / Cl / DBIL / GLC / IP / K / LDH / Na / PL / RALB / TBIL / TC / TG / TP / gamma-GTP: tissue Plasma

## Nc1c2c(nc3ccccc13)CCCC2 [TACRINE]
3 h
  TERMINAL_BW: 206.5 g
  APTT: 19.7 s
  Bas: 0%
  Eos: 0.8%
  Fbg: 293.2 mg/dL
  Hb: 13 g/dL
  Ht: 37.9%
  Lym: 81.6%
  MCH: 21.2 pg
  MCHC: 34.2%
  MCV: 61.7 fL
  Mono: 2%
  Neu: 15%
  PT: 16.3 s
  Plat: 114.9 x10_4/uL
  RBC: 614.4 x10_4/ul
  Ret: 7.9%
  WBC: 97 x10_2/uL
  KIDNEY_L: 0.9 g
  KIDNEY_R: 0.9 g
  KIDNEY_TOTAL: 1.8 g
  LIVER: 9.3 g
  A/G: 1.2
  ALP: 1417 IU/L
  ALT: 39.6 IU/L
  AST: 77.8 IU/L
  BUN: 13 mg/dL
  CRE: 0.2 mg/dL
  Ca: 10.6 mg/dL
  Cl: 106.8 meq/L
  DBIL: 0.002 mg/dL
  GLC: 189.6 mg/dL
  IP: 7.9 mg/dL
  K: 3.9 meq/L
  LDH: 229 IU/L
  Na: 142.6 meq/L
  PL: 131.4 mg/dL
  RALB: 3 g/dL
  TBIL: 0.018 mg/dL
  TC: 73.2 mg/dL
  TG: 60 mg/dL
  TP: 5.4 g/dL
  gamma-GTP: 1.2 IU/L
6 h
  TERMINAL_BW: 208.7 g
  APTT: 21.4 s
  Bas: 0%
  Eos: 0.8%
  Fbg: 310.4 mg/dL
  Hb: 13.3 g/dL
  Ht: 38.6%
  Lym: 80.2%
  MCH: 21.1 pg
  MCHC: 34.5%
  MCV: 61.1 fL
  Mono: 2.6%
  Neu: 16%
  PT: 16.1 s
  Plat: 115.4 x10_4/uL
  RBC: 632.2 x10_4/ul
  Ret: 7.7%
  WBC: 96.6 x10_2/uL
  KIDNEY_L: 0.9 g
  KIDNEY_R: 0.9 g
  KIDNEY_TOTAL: 1.9 g
  LIVER: 9 g
  A/G: 1.2
  ALP: 1333 IU/L
  ALT: 38.4 IU/L
  AST: 74.6 IU/L
  BUN: 10.8 mg/dL
  CRE: 0.2 mg/dL
  Ca: 10.6 mg/dL
  Cl: 106.8 meq/L
  DBIL: 0 mg/dL
  GLC: 176.6 mg/dL
  IP: 9.2 mg/dL
  K: 4.6 meq/L
  LDH: 252.4 IU/L
  Na: 142 meq/L
  PL: 137.4 mg/dL
  RALB: 2.9 g/dL
  TBIL: 0.016 mg/dL
  TC: 79.4 mg/dL
  TG: 82 mg/dL
  TP: 5.4 g/dL
  gamma-GTP: 1.2 IU/L
9 h
  TERMINAL_BW: 205.8 g
  APTT: 19.8 s
  Bas: 0%
  Eos: 1%
  Fbg: 285.8 mg/dL
  Hb: 13.2 g/dL
  Ht: 38.4%
  Lym: 81.6%
  MCH: 21.1 pg
  MCHC: 34.2%
  MCV: 61.5 fL
  Mono: 2%
  Neu: 15%
  PT: 16 s
  Plat: 120 x10_4/uL
  RBC: 624.8 x10_4/ul
  Ret: 8.6%
  WBC: 84.5 x10_2/uL
  KIDNEY_L: 0.9 g
  KIDNEY_R: 0.9 g
  KIDNEY_TOTAL: 1.8 g
  LIVER: 8.8 g
  A/G: 1.3
  ALP: 1213.6 IU/L
  ALT: 34 IU/L
  AST: 72.6 IU/L
  BUN: 12.6 mg/dL
  CRE: 0.2 mg/dL
  Ca: 10.4 mg/dL
  Cl: 107 meq/L
  DBIL: 0 mg/dL
  GLC: 185.6 mg/dL
  IP: 9.9 mg/dL
  K: 4.2 meq/L
  LDH: 230.8 IU/L
  Na: 142 meq/L
  PL: 139 mg/dL
  RALB: 3 g/dL
  TBIL: 0.022 mg/dL
  TC: 75.8 mg/dL
  TG: 60.8 mg/dL
  TP: 5.4 g/dL
  gamma-GTP: 1 IU/L
24 h
  TERMINAL_BW: 214.7 g
  APTT: 20.5 s
  Bas: 0%
  Eos: 0.8%
  Fbg: 295.8 mg/dL
  Hb: 13.4 g/dL
  Ht: 38.7%
  Lym: 83%
  MCH: 21.5 pg
  MCHC: 34.8%
  MCV: 61.9 fL
  Mono: 3%
  Neu: 12.4%
  PT: 16.3 s
  Plat: 126.5 x10_4/uL
  RBC: 626.2 x10_4/ul
  Ret: 7.3%
  WBC: 106.1 x10_2/uL
  KIDNEY_L: 0.9 g
  KIDNEY_R: 1 g
  KIDNEY_TOTAL: 1.9 g
  LIVER: 10 g
  A/G: 1.3
  ALP: 1572.4 IU/L
  ALT: 43 IU/L
  AST: 74.4 IU/L
  BUN: 18.8 mg/dL
  CRE: 0.2 mg/dL
  Ca: 10.8 mg/dL
  Cl: 106.8 meq/L
  DBIL: 0.008 mg/dL
  GLC: 191.6 mg/dL
  IP: 7.3 mg/dL
  K: 4.6 meq/L
  LDH: 300.2 IU/L
  Na: 141.4 meq/L
  PL: 154.2 mg/dL
  RALB: 3.1 g/dL
  TBIL: 0.032 mg/dL
  TC: 79.8 mg/dL
  TG: 103 mg/dL
  TP: 5.4 g/dL
  gamma-GTP: 1 IU/L
